Legend:
[1] = Particle size distribution by laser diffraction (Malvern apparatus); format: physicochemical; settings: micronised beclometasone dipropionate; for Span: [d(v,0.9)−d(v,0.1)]/d(v,0.5); for d (v, 0.1): volume diameter of 10% of the particles; for d (v, 0.5): volume diameter of 50% of the particles; for d (v, 0.9): volume diameter of 90% of the particles
Description: The size of the particles active is determined by measuring the characteristic equivalent sphere diameter, known as volume diameter, by laser diffraction. In the reported examples, the volume diameter has been determined using a Malvern apparatus, However, other equivalent apparatus may be used by the skilled person in the art.
(§1) The particle size was determined by laser diffraction using a Malvern apparatus. The parameter taken into consideration was the VD in micron of 10%, 50% and 90% of the particles expressed as d(v,0.1), d(v, 0.5) and d(v, 0.9), respectively, which correspond to the mass diameter assuming a size independent density for the particles. The span [d(v,0.9)−d(v,0.1)]/d(v,0.5) is also reported. The Specific Surface Area (SSA) was determined by BET nitrogen adsorption using a Coulter SA3100 apparatus as a mean of three determinations.

[2] = Specific Surface Area by BET nitrogen adsorption (Coulter SA3100); format: physicochemical; settings: micronised beclometasone dipropionate; mean of three determinations
Description: Advantageously, the micronized particles of BDP have also a specific surface area comprised between 5.5 and 7.0 m^2/g, preferably between 5.9 and 6.8 m^2/g. The Specific Surface Area is determined by Brunauer-Emmett-Teller (BET) nitrogen adsorption method according to a procedure known in the art.
as §1

SMILES | Span [1] | d (v, 0.1) [1] [μm] | d (v, 0.5) [1] [μm] | d (v, 0.9) [1] [μm] | SSA [2] [m^2/g]
CCC(=O)OCC(=O)[C@@]1(OC(=O)CC)[C@@H](C)C[C@H]2[C@@H]3CCC4=CC(=O)C=C[C@]4(C)[C@@]3(Cl)[C@@H](O)C[C@@]21C [Batch 1, beclometasone dipropionate] | 1.41 | 0.86 | 1.63 | 3.15 | 6.61
CCC(=O)OCC(=O)[C@@]1(OC(=O)CC)[C@@H](C)C[C@H]2[C@@H]3CCC4=CC(=O)C=C[C@]4(C)[C@@]3(Cl)[C@@H](O)C[C@@]21C [Batch 2, beclometasone dipropionate] | 1.31 | 0.96 | 1.81 | 3.33 | 5.90
CCC(=O)OCC(=O)[C@@]1(OC(=O)CC)[C@@H](C)C[C@H]2[C@@H]3CCC4=CC(=O)C=C[C@]4(C)[C@@]3(Cl)[C@@H](O)C[C@@]21C [Batch 3, beclometasone dipropionate] | 1.19 | 0.95 | 1.71 | 2.97 | 6.12
CCC(=O)OCC(=O)[C@@]1(OC(=O)CC)[C@@H](C)C[C@H]2[C@@H]3CCC4=CC(=O)C=C[C@]4(C)[C@@]3(Cl)[C@@H](O)C[C@@]21C [Batch 4, beclometasone dipropionate] | 1.54 | 0.91 | 1.84 | 3.76 | 6.28

Source: patent publication US10946029B2, “Dry powder formulation comprising a corticosteroid and a beta-adrenergic for administration by inhalation” (CHIESI FARMACEUTICI S.p.A., priority 2012, dated 2021)
